Legend:
[1] = target: T1, human TS (hTS) (Homo sapiens, UniProt P04818); assay: Thymidylate synthase (TS) spectrophotometric assay; format: biochemical; conditions: averages from triplicate assays
T1 construct: purchased ProSpec-Tany
Description: Recombinant human thymidylate synthase purchased from ProSpec-Tany Company. TS was assayed spectrophotometrically at 30 °C and pH 7.4 in a mixture containing 0.1 M 2-mercaptoethanol, 0.0003 M (6R,S)-tetrahydrofolate, 0.012 M formaldehyde, 0.02 M MgCl2, 0.001 M dUMP, 0.04 M Tris–HCl, 30 nM hTS, and 0.00075 M NaEDTA. […] The reaction was initiated by the addition of an amount of enzyme yielding a change in absorbance at 340 nm of 0.016/min in the absence of inhibitor.

[2] = target: BRaf kinase (Homo sapiens, UniProt P15056); assay: ADP-Glo kinase assay, BRaf; format: biochemical; conditions: averages from triplicate assays
Description: (§1) The ADP-Glo™ kinase assay (Promega, Madison, WI) was used to screen target compounds for their inhibition effects for BRaf, EGFR kinase. The kinase assay was carried out in a 96-well plate, in a volume of 25 μL HEPES (pH 7.3) solvent containing 1.6 μg/mL EGF, and 20 ng of EGFR kinase, or 50 ng BRaf kinase, and 10 μM ATP (Promega, Madison, WI). […] Reactions in each well were started immediately by adding ATP and kept going for half an hour under 30 °C in a constant temperature incubator (Bluepard, Shanghai, China). After the plate cooled for 5 min at room temperature, 25 μl of ADP-Glo reagent was added into each well to stop the reaction and consume the remaining […] within 40 min. At the end, 50 μl of kinase detection reagent was added into the well and incubated for 1 h to produce a luminescence signal.

[3] = target: EGFR kinase (Homo sapiens, UniProt P00533); assay: ADP-Glo kinase assay, EGFR; format: biochemical; conditions: averages from triplicate assays
Description: as §1

[4] = test system: A549 cells; assay: MTT assay A549; format: cell-based, human; conditions: Homo sapiens, A549, 24h of treatment, mean ± SD
Description: (§2) Details are given in Supplementary Materials and Methods. Using probability unit and weighted regression method to calculate the IC50 value of compounds.
(§3) Total cells in the logarithmic growth phase were collected, digested using 0.25% pancreatic enzymes, and then diluted into single-cell suspensions using phosphate-buffered solution (PBS). These cells were seeded into 96-well plates at 4× 10^3-5× 10^3 cells per well (100 µL per well) and then A549, H460, OVCAR-3, SGC7901, MDA-MB-231, HCT116 and HepG2 were cultured at 37°Cin an incubator containing 5% CO2. After cell complete attachment, 100 µL of different concentrations of compounds (0.625 μM, 1.25 μM, 2.5μM, 5 μM, 10 μM) were added to the cells after the nutrient solution in each well was discarded, while no compound except 0.1% DMSO was added to cells in the control group; at the same time, each concentration was set up to 5 wells. In addition, 5 wells in each 96-well plate only received 100 µL of nutrient solution as a blank control. The plates were taken out after the cells were incubated with compounds for 24 h, and 20 µL of MTT solution (5 mg/mL) (Wuhan Boster Biotechnology Limited Company, Wuhan, China; item No. AR1156) was added into all the wells. After another time of incubation for 4 h at 37 °C, the nutrient solution in each well was discarded slowly, and 150 µL of DMSO was added to each well. The plates were shaken on a shaking table for 20 min. When the crystals were fully dissolved, the blank wells were used to zero the plate reader. The optical density (OD) of each well was detected at 490 nm. The IC50 value was determined as the concentration of the inhibitor that caused 50% inhibition. Using probability unit and weighted regression method to calculate the IC50 value of compounds.

[5] = test system: OVCAR-3 cells; assay: MTT assay OVCAR-3; format: cell-based; conditions: Homo sapiens, 24h of treatment, mean ± SD
Description: as §2, §3

[6] = test system: SGC7901 cells; assay: MTT assay SGC7901; format: cell-based; conditions: Homo sapiens, SGC-7901, 24h of treatment, mean ± SD
Description: as §2, §3

[7] = test system: HCT-116 cells; assay: MTT assay HCT-116; format: cell-based; conditions: Homo sapiens, 24h of treatment, mean ± SD
Description: as §2, §3

[8] = test system: MDA-MB-231 cells; assay: MTT assay MDA-MB-231; format: cell-based; conditions: Homo sapiens, 24h of treatment, mean ± SD
Description: as §2, §3

[9] = test system: HepG2 cells; assay: MTT assay HepG2; format: cell-based; conditions: Homo sapiens, 24h of treatment, mean ± SD
Description: as §2, §3

BRaf kinase, sequence (P15056 whole entry): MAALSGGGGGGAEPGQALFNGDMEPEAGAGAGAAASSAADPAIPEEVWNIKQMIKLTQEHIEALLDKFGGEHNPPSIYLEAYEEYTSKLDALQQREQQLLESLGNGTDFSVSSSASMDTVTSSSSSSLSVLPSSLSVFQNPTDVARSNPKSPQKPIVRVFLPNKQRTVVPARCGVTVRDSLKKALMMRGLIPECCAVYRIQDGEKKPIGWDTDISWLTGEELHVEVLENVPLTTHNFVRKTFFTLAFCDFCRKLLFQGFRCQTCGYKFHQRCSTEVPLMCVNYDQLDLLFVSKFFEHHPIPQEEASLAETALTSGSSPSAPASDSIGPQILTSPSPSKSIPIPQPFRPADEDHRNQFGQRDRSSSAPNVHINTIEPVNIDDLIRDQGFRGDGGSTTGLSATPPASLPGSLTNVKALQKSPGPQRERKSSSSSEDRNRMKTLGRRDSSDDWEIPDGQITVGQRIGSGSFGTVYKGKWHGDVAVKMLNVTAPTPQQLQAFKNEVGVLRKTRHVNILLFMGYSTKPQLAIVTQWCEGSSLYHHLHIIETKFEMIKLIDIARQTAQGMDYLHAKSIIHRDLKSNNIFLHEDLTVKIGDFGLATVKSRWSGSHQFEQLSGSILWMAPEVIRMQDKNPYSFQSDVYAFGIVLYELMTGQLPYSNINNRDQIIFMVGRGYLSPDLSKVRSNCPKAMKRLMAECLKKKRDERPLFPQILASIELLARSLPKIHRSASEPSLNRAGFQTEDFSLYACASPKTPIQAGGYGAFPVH
T1 sequence (P04818 whole entry): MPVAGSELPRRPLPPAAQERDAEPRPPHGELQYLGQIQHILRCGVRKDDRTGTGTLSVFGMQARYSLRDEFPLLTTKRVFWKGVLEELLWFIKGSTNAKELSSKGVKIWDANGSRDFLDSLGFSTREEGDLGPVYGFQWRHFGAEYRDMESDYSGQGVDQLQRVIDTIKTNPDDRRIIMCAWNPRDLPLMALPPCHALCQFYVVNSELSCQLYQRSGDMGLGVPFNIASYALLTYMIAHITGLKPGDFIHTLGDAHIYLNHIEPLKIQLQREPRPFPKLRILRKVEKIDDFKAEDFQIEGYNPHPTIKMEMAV
EGFR kinase, sequence (P00533 25-1210): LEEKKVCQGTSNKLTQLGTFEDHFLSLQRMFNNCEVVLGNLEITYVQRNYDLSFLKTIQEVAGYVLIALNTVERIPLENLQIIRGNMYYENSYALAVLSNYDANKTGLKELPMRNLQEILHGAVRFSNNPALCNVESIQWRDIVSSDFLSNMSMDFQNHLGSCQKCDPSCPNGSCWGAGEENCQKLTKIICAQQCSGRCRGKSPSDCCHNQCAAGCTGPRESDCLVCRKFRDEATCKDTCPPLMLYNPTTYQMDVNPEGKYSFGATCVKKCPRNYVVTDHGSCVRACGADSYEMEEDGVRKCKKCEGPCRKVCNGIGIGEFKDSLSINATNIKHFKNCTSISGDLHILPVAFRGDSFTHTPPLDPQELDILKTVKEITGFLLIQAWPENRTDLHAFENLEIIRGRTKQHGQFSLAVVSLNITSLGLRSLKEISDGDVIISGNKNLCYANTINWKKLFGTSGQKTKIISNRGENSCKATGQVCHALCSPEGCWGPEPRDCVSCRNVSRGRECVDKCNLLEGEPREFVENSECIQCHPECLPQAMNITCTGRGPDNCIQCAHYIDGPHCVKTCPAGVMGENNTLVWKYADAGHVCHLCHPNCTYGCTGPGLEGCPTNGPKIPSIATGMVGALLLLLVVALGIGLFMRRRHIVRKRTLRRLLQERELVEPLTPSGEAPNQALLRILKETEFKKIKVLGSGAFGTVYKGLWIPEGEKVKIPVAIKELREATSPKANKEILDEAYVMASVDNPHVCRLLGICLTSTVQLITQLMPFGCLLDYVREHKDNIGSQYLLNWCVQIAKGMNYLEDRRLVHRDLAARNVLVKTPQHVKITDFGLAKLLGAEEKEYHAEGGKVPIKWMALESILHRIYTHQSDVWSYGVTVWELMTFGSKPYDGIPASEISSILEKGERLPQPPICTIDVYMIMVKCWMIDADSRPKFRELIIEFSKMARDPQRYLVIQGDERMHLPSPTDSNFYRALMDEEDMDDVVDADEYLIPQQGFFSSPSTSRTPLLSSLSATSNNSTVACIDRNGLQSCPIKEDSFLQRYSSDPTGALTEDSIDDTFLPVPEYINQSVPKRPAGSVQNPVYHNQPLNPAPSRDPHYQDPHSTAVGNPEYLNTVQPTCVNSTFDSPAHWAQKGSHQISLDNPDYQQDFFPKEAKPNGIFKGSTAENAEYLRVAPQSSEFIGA

SMILES	IC50 [1] [µM]	IC50 [2] [µM]	IC50 [3] [µM]	IC50 [4] [µM]	IC50 [5] [µM]	IC50 [6] [µM]	IC50 [7] [µM]	IC50 [8] [µM]	IC50 [9] [µM]	melting point [°C]
O=C(Nc1ccc(NS(=O)(=O)c2c[nH]c(=O)[nH]c2=O)cc1)Nc1cccc(Cl)c1 [Compound L13e, N'-(3-chlorophenyl)-4-(2,4-dihydroxypyrimidine-5-sulfonamido)phenylurea]	4.55	3.64	4.41	0.95 ± 0.05	1.05 ± 0.42	3.38 ± 0.18	2.46 ± 0.06	2.48 ± 1.46	2.81 ± 0.16	169 to 171
O=C(Nc1cccc(NS(=O)(=O)c2c[nH]c(=O)[nH]c2=O)c1)Nc1ccccc1Cl [Compound L15d, N'-(2-chlorophenyl)-3-(2,4-dihydroxypyrimidine-5-sulfonamido)phenylurea]	3.81	4.09	7.65	1.87 ± 0.12	6.3 ± 0.25	5.25 ± 0.81	2.65 ± 0.33	2.04 ± 0.29	4.97 ± 0.36	159 to 162
Cc1cccc(NC(=O)Nc2ccc(NS(=O)(=O)c3c[nH]c(=O)[nH]c3=O)cc2)c1 [Compound L13h, N'-(3-methylphenyl)-4-(2,4-dihydroxypyrimidine-5-sulfonamido)phenylurea]	4.57	3.53	3.99	1.85 ± 0.13	9.56 ± 0.94	6.35 ± 0.52	5.46 ± 1.21	> 10	5.83 ± 0.18	179 to 182
CNC(=O)c1cc(Oc2ccc(NC(=O)Nc3ccc(Cl)c(C(F)(F)F)c3)cc2)ccn1 [Sorafenib, reference compound]				> 10	> 10	> 10	> 10	> 10	8.21 ± 0.34	
Cc1ccc(NC(=O)Nc2ccc(NS(=O)(=O)c3c[nH]c(=O)[nH]c3=O)cc2)cc1 [Compound L13i, N'-(4-methylphenyl)-4-(2,4-dihydroxypyrimidine-5-sulfonamido) phenyl urea]	7.39	4.91	5.48	3.48 ± 0.13	> 10	4.92 ± 0.23	7.98 ± 0.61	> 10	8.25 ± 0.25	181 to 183
O=C(Nc1ccc(Cl)cc1)Nc1ccccc1NS(=O)(=O)c1c[nH]c(=O)[nH]c1=O [Compound L14f, N'-(4-chlorophenyl)-2-(2,4-dihydroxypyrimidine-5-sulfonamido)phenyl urea]	2.12	1.71	2.23	1.38 ± 0.27	6.52 ± 0.5	3.98 ± 0.33	4.22 ± 0.31	4.54 ± 0.41	1.62 ± 0.1	160 to 163
Cc1cccc(NC(=O)Nc2ccccc2NS(=O)(=O)c2c[nH]c(=O)[nH]c2=O)c1 [Compound L14h, N'-(3-methylphenyl)-2-(2,4-dihydroxypyrimidine-5-sulfonamido)phenylurea]	3.52	3.61	4.28	1.45 ± 0.06	7.3 ± 0.68	3.3 ± 0.15	5.39 ± 0.41	7.16 ± 0.9	> 10	155 to 158
O=C(Nc1ccc(NS(=O)(=O)c2c[nH]c(=O)[nH]c2=O)cc1)Nc1ccccc1Cl [Compound L13d, N'-(2-chlorophenyl)-4-(2,4-dihydroxypyrimidine-5-sulfonamido)phenylurea]	2.36	2.39	4.22	2.01 ± 0.14	1.73 ± 0.44	5.3 ± 0.28	4.13 ± 0.16	> 10	6.56 ± 0.15	167 to 169
O=C(Nc1cccc(Cl)c1)Nc1cccc(NS(=O)(=O)c2c[nH]c(=O)[nH]c2=O)c1 [Compound L15e, N'-(3-chlorophenyl)-3-(2,4-dihydroxypyrimidine-5-sulfonamido)phenylurea]	2.17	2.96	4.37	0.87 ± 0.28	1.19 ± 0.49	2.58 ± 0.43	3.3 ± 0.07	3.13 ± 0.09	2.29 ± 0.29	162 to 166
Cc1ccccc1NC(=O)Nc1cccc(NS(=O)(=O)c2c[nH]c(=O)[nH]c2=O)c1 [Compound L15g, N'-(2-methylphenyl)-3-(2,4-dihydroxypyrimidine-5-sulfonamido)phenyl urea]	> 10	> 10	> 10	8.75 ± 0.61	> 10	7.04 ± 0.87	6.41 ± 1.83	> 10	7.66 ± 0.78	163 to 167
Cc1cccc(NC(=O)Nc2cccc(NS(=O)(=O)c3c[nH]c(=O)[nH]c3=O)c2)c1 [Compound L15h, N'-(3-methylphenyl)-3-(2,4-dihydroxypyrimidine-5-sulfonamido)phenyl urea]	7.16	6.38	7.1	1.46 ± 0.5	5.98 ± 0.6	4.78 ± 0.62	6.15 ± 0.53	6.41 ± 0.41	5.97 ± 0.21	165 to 169
Cc1ccc(NC(=O)Nc2cccc(NS(=O)(=O)c3c[nH]c(=O)[nH]c3=O)c2)cc1 [Compound L15i, N'-(4-methylphenyl)-3-(2,4-dihydroxypyrimidine-5-sulfonamido)phenyl urea]	8.3	7.23	8.67	4.18 ± 0.46	> 10	6.96 ± 1.53	9.5 ± 1.6	9.06 ± 1.13	6.96 ± 0.59	173 to 175
O=C(Nc1ccc(Cl)cc1)Nc1ccc(NS(=O)(=O)c2c[nH]c(=O)[nH]c2=O)cc1 [Compound L13f, N'-(4-chlorophenyl)-4-(2,4-dihydroxypyrimidine-5-sulfonamido)phenylurea]	6.3	3.59	4.65	0.99 ± 0.07	8.04 ± 0.32	3.98 ± 0.05	5.53 ± 0.25	8.89 ± 2.42	4.35 ± 0.45	175 to 177
O=C(Nc1ccccc1Cl)Nc1ccccc1NS(=O)(=O)c1c[nH]c(=O)[nH]c1=O [Compound L14d, N'-(2-chlorophenyl)-2-(2,4-dihydroxypyrimidine-5-sulfonamido)phenyl urea]	1.91	1.62	2.39	3.29 ± 0.3	7.27 ± 1.23	5.22 ± 0.18	4.96 ± 0.63	6.71 ± 0.18	2.2 ± 0.06	151 to 153
Cc1ccccc1NC(=O)Nc1ccccc1NS(=O)(=O)c1c[nH]c(=O)[nH]c1=O [Compound L14g, N'-(2-methylphenyl)-2-(2,4-dihydroxypyrimidine-5-sulfonamido)phenyl urea]	6.47	7.41	> 10	2.09 ± 0.72	> 10	5.4 ± 0.09	4.82 ± 0.19	> 10	5.59 ± 0.64	151 to 154

From publication PMC6624297 (Cell Death & Disease, 2019)
